In patent publication US7012127B1, “Analogues of lipopolysaccharide-binding protein (LBP)-derived peptides that efficiently neutralize lipopolysaccharides (LPS)” (Centro de Ingenicria Genetica y Biotecnologia, priority 1999, dated 2006):

Key:
[1] = tested on: E. coli LPS lethal challenge in BALB/c mice; assay: Endotoxin shock model in Actinomycin D-sensitized mice, survival; format: in vivo; settings: Actinomycin D 7.5 μg i.p., E. coli LPS 1 μg/mouse mixed with peptide (1 h, 37° C.), equimolar doses, survival over 120 h, p<0.05 vs. vehicle or B6,1
Protocol: An endotoxin shock animal model was used to determine if the peptides of this invention were able to block complex physiological responses triggered by LPS. In this model mice were sensitized with Actinomycin D to increase LPS-mediated toxic responses. With this purpose, Actinomycin D (7.5 μg) was administered i.p. to 6 to 8 weeks-old female mice. Simultaneously each mice received LPS, and survival was evaluated every 24 h during 120 h.
The effect of peptides of the present invention on mice survival was assessed by administering E. coli LPS (1 μg/mouse in saline vehicle) or LPS:peptide mixtures mixtures (previously incubated during 1 h at 37° C.) to BALB/c sensitized mice. FIG. 6 represents the results of a representative experiment where the following peptides were each administered at equimolar doses to groups of 20 mice: LBP86-99, LBPA94, LBPAs95, LBPA98 or B6, 1 (cationic, non-related peptide). […] The aforementioned in vivo neutralizing property of the peptides of the invention is relevant for their application in prophylactic or therapeutic methods for sepsis and other associated disorders.
Survival in groups of BALB/c mice treated with LBP86-99 (LBP) and B6,1 is also shown. Mice survival was recorded each 24 h during 120 h.

[2] = tested on: LPS-induced human peripheral blood mononuclear cells (PBMC); assay: Release of TNF by LPS-induced human PBMC; format: cell-based; settings: E. coli 0111:B4 LPS incubated with peptide 2 h at 37° C.; human LBP 200 ng/mL; TNFα in supernatants after 18 h; average of three experiments
Protocol: In order to determine if the peptides of the present invention were able to neutralize LPS-mediated responses, their ability to reduce the release of TNF by LPS-activated human peripheral blood cells was estimated. This assay evaluates the release of TNF by LPS-induced human peripheral blood mononuclear cells (PBMC), using concentrations of LPS commonly found in septic patients. LPS was incubated with fixed concentrations of each peptide during 2 h at 37° C. and the mixtures were then added to PBMC. The culture medium was supplemented with human LBP (200 ng/mL) and plates were incubated at 37° C. in a 5% CO2 atmosphere. TNFα was measured in culture supernatants after 18 h using a human TNF-α specific ELISA. FIG. 4 represents the average results from three different experiments. […] LBPA95 and LBPA96. […] Similar results were observed when other concentrations of LPS (2 or 10 ng/mL) and hLBP (20 or 100 ng/mL) were used.
The effects on this assay of LBP86-99 (LBP), LBPA91, B6,1 and polymyxin B (PMB) are also shown.

[3] = tested on: interaction between hLBP and E. coli LPS; assay: ELISA: binding of biotinylated-LPS to surface-captured human LBP in the presence of peptides; settings: LPS and peptide incubated 2 h at room temperature; fixed quantities of peptide
From the text: This example describes the capacity of preferred peptides of the invention to block the interaction between LBP and E. coli LPS. An ELISA was used to determine the binding of biotinylated-LPS to surface-captured human LBP, in the presence or absence of fixed quantities of the selected peptides. LPS was biotinylated according to standard procedures. Human LBP (hLBP) was captured by using a specific monoclonal antibody, purified by affinity chromatography. Mixtures of LPS and each peptide were incubated during 2 h at room temperature, and then 100 μL were added to hLBP-containing wells. The binding of biotinylated-LPS to hLBP was detected with horseradish peroxidase-conjugated streptavidin. The assay was developed by adding a chromogenic substrate. […] Each experiment recorded the interaction of hLBP and biotinylated-LPS in absence of peptides, in presence of LBP86-99, and in the example presented in FIG. 2 the effect of a non-related cationic peptide (C5,3).
Human LBP was captured to the plates using a specific monoclonal antibody. Binding of biotinylated-LPS was detected with an streptavidin-horseradish peroxidase conjugate. The extent to which the peptide LBP86-99 (LBP) inhibits this interaction is also shown.
The experimental conditions were similar to those described in FIG. 1. The effect of a non-related cationic peptide, C5,3 is also included.

[4] = tested on: LPS-stimulated human PBMC; assay: LPS-induced IL-6 production in cultures of human PBMC; format: cell-based; settings: at every hLBP concentrations tested
Protocol: In order to determine if the peptides of the present invention were able to neutralize LPS-mediated responses, their ability to reduce the release of TNF by LPS-activated human peripheral blood cells was estimated. This assay evaluates the release of TNF by LPS-induced human peripheral blood mononuclear cells (PBMC), using concentrations of LPS commonly found in septic patients. LPS was incubated with fixed concentrations of each peptide during 2 h at 37° C. and the mixtures were then added to PBMC. The culture medium was supplemented with human LBP (200 ng/mL) and plates were incubated at 37° C. in a 5% CO2 atmosphere. TNFα was measured in culture supernatants after 18 h using a human TNF-α specific ELISA. […]
This invention provides peptides with advantageous functions over other LBP-derived peptides that have the native sequence or different a.a. replacements to those herein described at positions +1, +5, +6, +7, +9, +10, +11, +12 and +13. […] IL-6 was measured in culture supernatants after 18 h using a human IL-6 specific ELISA. In the represented experiment, the following peptides were evaluated; LPB86-99, LBP-H (LBP86-101, SEQ ID NO. 56)^13, LBPA94, LBPA95, and LBPA98. […]
Results are expressed as % inhibition of IL-6 release compared with the cytokine production in the absence of peptides The effects on this assay of LBP86-99, (LBP), LBP-H and B6,1 are also shown.

| Substance | mice survival [1] | LPS-stimulated TNF release by human PBMC [2] | interaction between hLBP and E. coli LPS (binding of biotinylated-LPS to captured hLBP) [3] | reduction of the LPS-triggered response (IL-6) [4] |
| --- | --- | --- | --- | --- |
| LBP86-99: peptide with the native sequence of the 86-99 a.a. region of human LBP mature protein (RVQGRWKVRKSFFK) [reference compound] | only marginally | Reduced levels of cytokine release |  |  |
| LBPA86: LBP 86-99 peptide analogue, SEQ ID No.2 (AVQGRWKVRKSFFK) |  |  | notably impaired |  |
| LBPA90: LBP 86-99 peptide analogue, SEQ ID No.3 (RVQGAWKVRKSFFK) |  |  | notably impaired |  |
| LBPA91: peptide which has tryptophan residue at position (6) replaced with alanine, SEQ ID No.55 (RVQGRAKVRKSFFK) |  | did not inhibit | not affected |  |
| LBPA92: peptide with a residue at +6, +7 or +12 distinct from those of the invention, SEQ ID No.53 (RVQGRWAVRKSFFK) |  |  | not affected |  |
| LBPA94: LBP 86-99 peptide analogue, SEQ ID No.4, essential a.a. at position +9 (RVQGRWKVAKSFFK) | significantly increased | Reduced levels of cytokine release | notably impaired |  |
| LBPA95: LBP 86-99 peptide analogue, SEQ ID No.5, essential a.a. at position +10 (RVQGRWKVRASFFK) | significantly increased | Reduced levels of cytokine release | notably impaired | more than 70% |
| LBPA96: LBP 86-99 peptide analogue, SEQ ID No.6 (RVQGRWKVRKAFFK) |  | Reduced levels of cytokine release | notably impaired |  |
| LBPA97: peptide with a residue at +6, +7 or +12 distinct from those of the invention, SEQ ID No.54 (RVQGRWKVRKSAFK) |  |  | not affected |  |
| LBPA98: LBP 86-99 peptide analogue, SEQ ID No.7, essential a.a. at position +13 (RVQGRWKVRKSFAK) | significantly increased |  | notably impaired |  |
